Experimental data: paper PMC8450076, “Structural and mechanistic insights into the Artemis endonuclease and strategies for its inhibition” (Nucleic Acids Research, 2021)

What was measured:
[1] = target: T1, Artemis (SNM1C/DCLRE1C) (Homo sapiens, UniProt Q96SD1); test: biochemical
Target sequence in this assay (Q96SD1 whole entry, the tested form may be a part): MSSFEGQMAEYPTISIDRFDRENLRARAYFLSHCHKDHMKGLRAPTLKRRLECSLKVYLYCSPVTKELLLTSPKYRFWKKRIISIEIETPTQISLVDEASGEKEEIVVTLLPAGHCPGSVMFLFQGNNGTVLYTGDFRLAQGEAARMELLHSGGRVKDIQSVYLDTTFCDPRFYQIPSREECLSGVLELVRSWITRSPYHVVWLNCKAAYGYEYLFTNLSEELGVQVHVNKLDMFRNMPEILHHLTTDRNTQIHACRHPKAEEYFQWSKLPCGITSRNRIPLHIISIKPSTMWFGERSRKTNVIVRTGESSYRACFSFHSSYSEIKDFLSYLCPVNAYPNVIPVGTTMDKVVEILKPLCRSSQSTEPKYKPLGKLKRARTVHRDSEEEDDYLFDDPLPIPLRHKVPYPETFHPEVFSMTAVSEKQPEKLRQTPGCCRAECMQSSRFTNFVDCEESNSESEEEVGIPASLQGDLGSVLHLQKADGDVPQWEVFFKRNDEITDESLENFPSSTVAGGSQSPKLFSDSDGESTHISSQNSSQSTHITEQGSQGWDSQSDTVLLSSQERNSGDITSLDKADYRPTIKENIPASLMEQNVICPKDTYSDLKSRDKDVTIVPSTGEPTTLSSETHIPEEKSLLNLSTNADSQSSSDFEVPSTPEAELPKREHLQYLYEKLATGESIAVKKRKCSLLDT

[2] = target: T1, Artemis (SNM1C/DCLRE1C); test: X-ray crystal structure ([…] Å) plus real-time fluorescence-based nuclease assay (IC50); format: biochemical; set-up: truncated Artemis catalytic domain, MBL-β-CASP (aa 1-361)
From the text: We solved a structure of ceftriaxone bound to Artemis
Target sequence in this assay (Q96SD1 1-361): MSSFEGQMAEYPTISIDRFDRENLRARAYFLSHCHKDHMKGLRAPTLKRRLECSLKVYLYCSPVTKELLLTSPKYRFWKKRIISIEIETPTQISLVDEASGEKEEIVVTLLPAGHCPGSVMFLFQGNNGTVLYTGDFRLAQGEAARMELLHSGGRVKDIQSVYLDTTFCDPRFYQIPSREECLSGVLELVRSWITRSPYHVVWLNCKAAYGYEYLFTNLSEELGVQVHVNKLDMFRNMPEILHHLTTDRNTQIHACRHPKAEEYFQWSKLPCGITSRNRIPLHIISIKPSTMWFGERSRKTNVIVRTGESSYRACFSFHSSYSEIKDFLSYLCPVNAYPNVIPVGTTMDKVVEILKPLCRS

Row | Structure (SMILES) | IC50 [1] [µM] | other results
1 | CC[P](CC)(CC)=[Au][S][C@@H]1O[C@H](COC(C)=O)[C@@H](OC(C)=O)[C@H](OC(C)=O)[C@H]1OC(C)=O [auranofin] | 46 | 
2 | CO/N=C(\C(=O)N[C@@H]1C(=O)N2C(C(=O)O)=C(CSc3nc(=O)c(=O)[nH]n3C)CS[C@H]12)c1csc(N)n1 [ceftriaxone] |  | IC50 [2]: 65 µM
3 | O=c1c2ccccc2[se]n1-c1ccccc1 [ebselen] | ~8.5 | 
4 | CCN(CC)C(=S)SSC(=S)N(CC)CC [disulfiram] |  | IC50 ([1]; read-out: IC50): ~10.8 µM
